In patent US20210393932A1, “DERMAL PATCHES AND GLASS SWABS FOR APPLICATION OF TOPICAL IMMUNOSENSITIZERS” (Squarex, LLC, priority 2020, published 2021):

Experiments:
[1] = system: PBMCs in the presence of HSV-1; assay: Immune gene expression and proliferation of PBMCs from subjects dosed once with SADBE; type: cell-based, human
Excerpt: Introduction: Differences in immune characteristics, including immune gene expression by peripheral blood mononuclear cells (PBMCs), correlating with herpes labialis and good or poor immune control of herpes simplex virus type 1 (HSV-1) (i.e., frequency of herpes labialis episodes), and how these characteristics change after dosing with squaric acid dibutyl ester (SADBE), were investigated. Methods: PBMCs were collected from persons positive for IgG against HSV-1 and having frequent (self-reported 6 or more episodes in the prior 12 months), infrequent (1 or 2 episodes in the prior 12 months), or no herpes labialis outbreaks in the prior 12 months. The PBMCs were tested for proliferation against HSV-1 and a fungal antigen (Candida) and immune gene expression in the presence of HSV-1 and Candida. On day 1 after blood collection the subjects with frequent outbreaks were dosed topically on the arm once with 2% SADBE in DMSO, and their PBMCs were collected and tested 2 weeks later and 8 weeks later.
(§1) Doses were applied by dipping a cotton swab in a 1-ml vial of liquid study medication, then swabbing a spot on the inner aspect of the upper arm over an area of about 10 to 15 mm diameter encircled by petroleum jelly. After application, the spot was covered by TEGADERM™ dressing, and subjects were advised to remove the dressing and wipe the spot with a wet cloth 3 hours later. The weight of the vial of study medication with the vial standing in it was measured immediately before and immediately after dosing each subject. The difference was the net mass of drug applied. In most cases, 10 mg to 20 mg of drug solution was applied to the arm.

[2] = system: herpes labialis outbreaks; assay: Phase 2 multi-center placebo-controlled study of single dose SADBE in recurrent herpes labialis; type: in vivo, human
Procedure: After institutional review board approval and written informed consent, this study was conducted at five centers in subjects with four or more herpes labialis episodes in the previous 12 months. Subjects were randomized to receive either (1) one dose of 2% SADBE in DMSO on day 1, (2) 2% SADBE on day 1 and a second lower dose (0.5%) “booster” on day 22, or (3) dimethylsulfoxide (DMSO) vehicle only on days 1 and 22. All subjects were followed for 1 year.
as §1, with “blindly labeled 1 ml” for “1-ml”

[3] = system: pig skin; assay: Skin irritation (erythema, edema) after SADBE dermal patches in swine; type: in vivo; conditions: for Average high erythema score: across all patches, doses and exposure times
Excerpt: An additional purpose was to assess immediate and delayed skin irritation, including erythema and edema on the pig skin over 4 weeks after dosing. Skin irritation was scored as in Table 5. [table] It was scored 3 times per week at each patch application site for four weeks. The scores shown are the erythema score at the time of patch removal, and then the highest of the 3 scores taken each week for each patch site.

[4] = Toxicity evaluation (body weight, food consumption, necropsy, histopathology) in Gottingen mini-pig; type: in vivo, Gottingen miniswine
Excerpt: The purpose of this nonGLP study was to evaluate the effect of various concentrations of SADBE delivered via dermal patch, for dose site irritation and toxicity endpoints such as body weights, group food consumption, clinical observation, pre-termination clinical pathology, gross and histopathology.
A total of 6 Gottingen miniswine (3 female and 3 male) was used in this nonGLP study. Prior to dosing, the baseline body weights, group food consumption, and Draize scoring (see tables 1 and 2) for erythema and eschar formation and edema at the future dose site were recorded. A dermal patch (1 patch/animal) loaded with 20 microliters of 2, 6, or 18% SADBE drug solution was applied to animals, and left in place for ˜12 hours. Following the ˜12 hour dosing period, patch sites was assessed by Draize scoring as in Example 5, 5×/week for 21 days. […] After the 25 day assessment period, the animals were re-challenged and a second dosing and assessment phase performed for 30 days. At the end of the survival period, animals were humanely euthanized and a complete necropsy was performed. The test article vials used to prepare patches and mini-pig exposed patches were collected after application to determine SADBE content and SADBE degradation product squaric acid monobutyl ester (SAMBE) using HPLC at Squarex's Laboratory.
Dose site was explanted, fixed, and embedded. Dose sites were examined histologically and an evaluation of cell type presence and tissue response conducted.

[5] = system: herpes labialis (cold sores or oral herpes); conditions: cited from earlier work
[6] = single topical dose of 2% SADBE in DMSO to the arm, 56 days after dose vs day 1
[7] = any dose (2%, 6%, 18% SADBE patch)

With `CCCCOc1c(OCCCC)c(=O)c1=O` [SADBE, squaric acid dibutyl ester] the “PBMC gene expression or proliferation measures vs day 1” value ([1]; 2 weeks after the one dose of 2% SADBE) was “did not differ”, the “IFNG expression in PBMCs in the presence of HSV-1 virus” value [1, 6] was “increasing” and the “IL5 expression in PBMCs in the presence of HSV-1 virus” value [1, 6] was “decreasing”. For the same molecule, the “time to next outbreak from day 43 to 121” value ([2]; 1-dose group (2% SADBE in DMSO day 1) vs placebo, p=0.024) was “superior to the placebo group”, the “proportion of subjects with an outbreak in days 43-121” value ([2]; 1-dose group (9/39), placebo 46%, p=0.036) was 23% and the “mean number of outbreaks in days 43-121” value ([2]; 1-dose group, ± standard error, placebo 0.610±0.068, p=0.011) was 0.231±0.125. The “average number of moderate or severe outbreaks over days 1-365” value ([2]; 1-dose, placebo 1.341±1.76, p=0.04) was 0.641±0.931, the “average number of moderate or severe outbreaks over days 43-121” value ([2]; 1 dose of SADBE, placebo 0.390±0.703, p=0.04) was 0.128±0.339 and the “outbreak measures vs placebo, 2-dose group” value ([2]; 2% SADBE day 1 and 0.5% booster day 22) was “superior to placebo these same measures, but not significantly so”. For the same molecule, the “severity of administration site reactions (most common adverse event)” value ([2]; topical 2% SADBE) was “all mild or moderate”, the “time to resolution of administration site reactions” value ([2]; topical 2% SADBE) was no more than 3 months and the “Average erythema score weeks 0-3” value ([3]; 20 ul of 2% SADBE, 1 hour exposure) was 0. The “Average erythema score weeks 0-3” value ([3]; 20 ul of 2% SADBE, 3 hours exposure) was 0.83, the “Average erythema score weeks 0-3” value ([3]; 20 ul of 2% SADBE, 6 hours exposure) was 0.92 and the “Average erythema score weeks 0-3” value ([3]; 20 ul of 2% SADBE, 24 hours exposure) was 1.5. The “Average erythema score weeks 0-3” value ([3]; 50 ul of 2% SADBE, 1 hour exposure) was 1.5, the “Average erythema score weeks 0-3” value ([3]; 50 ul of 2% SADBE, 3 hours exposure) was 2.125 and the “Average erythema score weeks 0-3” value ([3]; 50 ul of 2% SADBE, 6 hours exposure) was 1.92. For the same molecule, the “Average erythema score weeks 0-3” value ([3]; 50 ul of 2% SADBE, 24 hours exposure) was 2.5, the “Average erythema score weeks 0-3” value ([3]; 80 ul of 2% SADBE, 1 hour exposure) was 1.375 and the “Average erythema score weeks 0-3” value ([3]; 80 ul of 2% SADBE, 3 hours exposure) was 1.625. For the same molecule, the “Average erythema score weeks 0-3” value ([3]; 80 ul of 2% SADBE, 6 hours exposure) was 1.25, the “Average erythema score weeks 0-3” value ([3]; 80 ul of 2% SADBE, 24 hours exposure) was 2.25 and the “Average high erythema score” value ([3]; Week 1) was 1.05. For the same molecule, the “Average high erythema score” value ([3]; Week 2) was 2.60, the “Average high erythema score” value ([3]; Week 3) was 1.73 and the “Average high erythema score” value ([3]; Week 4) was 0.00. For the same molecule, the “edema at drug application site” value ([3]; any site, any time after patch application and removal) was “No pigs had edema”, the “Average high erythema score” value ([3]; at patch removal) was 0.63 and the “histopathology of treated skin sites: inflammatory infiltrates in the dermis” value ([4]; 2% & 6% SADBE) was “multifocal rare to mild infiltrates of inflammatory cells”. For the same molecule, the “histopathology of treated skin sites: inflammatory infiltrates in the dermis” value ([4]; 18% SADBE) was “multifocal mild to heavy infiltrates of inflammatory cells”, the “histopathology: necrosis and fatty infiltration” value ([4]; all SADBE treated sites) was “minimal multifocal necrosis and fatty infiltration were observed” and the “Cervical and Inguinal lymph node sections” value ([4]; all animals, all doses) was “within normal limits”. The gross necropsy ([4]; all doses) was “No abnormalities were noted”, the “histopathology: parakeratosis” value ([4]; all sections examined) was “mild to moderate parakeratosis” and the “effect on body weight” value [4, 7] was “no significant effect”. For the same molecule, the “effect on food consumption” value [4, 7] was “no significant effect”, the “histopathology: neovascularization and fibrosis” value ([4]; any tissue sections examined) was “Neovascularization and fibrosis was not noted” and the “time for which a single dose to the arm prevents outbreaks” value ([5]; SADBE-DMSO solution (Palli et al., Chang et al.)) was no less than 3 months. For the same molecule, the “number of cold sore outbreaks” value ([5]; single dose applied to the arm, for about four months (Palli et al., Chang et al.)) was “significantly decrease number of cold sore outbreaks”.
